Values quoted from earlier work as cited in US20100310652A1, “COATED EXTENDED RELEASE PHARMACEUTICAL COMPOSITIONS OF LEVETIRACETAM” (Alembic Limited, priority 2007, published 2010).
Values after ≈ are worked out from the molar mass of the structure shown.

Columns and labels:
[1] = in 15 minutes, three different pH media
[2] = highly permeable

## CC[C@@H](C(N)=O)N1CCCC1=O [Levetiracetam, (−)-(S)-α-ethyl-2-oxo-1-pyrrolidine acetamide]
other
  aqueous solubility: 1.04 g/mL (≈ 6110 mM)
[1]
  drug released: more than 85%
[2]
  permeability (F): > 90%
